Some test systems named below: SK-MEL-2; MDA-N; MDA-MB-435; SF-539; SK-MEL-28; HCT-15; OVCAR-5; M14; HT-29; OVCAR-4; 786-0; SNB-75; A498; LOX IMVI; SW-620; HCT-116; IGROV-1; U-251; K562; CCRF-CEM.
Assay in all cases: NCI tumour cell line growth inhibition, 48 h

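Protocol summary: plate cells (96-well), add compound at 5 concentrations, incubate 48 h, interpolate endpoints linearly. The concentration for 50% growth inhibition is given as GI50.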 Active and inactive are the calls of the source. Rule as the data show it: active = GI50 up to about 1.1 µM and inactive = higher. Residues, ends and D or L forms follow the SMILES beside them. *: point of attachment. Boc = CC(C)(C)OC(=O)*; OBn = c1ccc(CO*)cc1

For `CCCCOC(=O)C(=O)C(CCC(=O)c1ccc(C)cc1)C(=O)C=C(C)C` (stereo not given), the GI50 with SK-MEL-2 was > 100 µM (inactive); in the assay on MDA-N, > 100 µM (inactive); in the assay on MDA-MB-435, > 100 µM (inactive); with SF-539, > 100 µM (inactive); in the assay with SK-MEL-28 it was > 100 µM (inactive); in the assay with HCT-15, above 100 µM. Besides, the GI50 with OVCAR-5, with M14, in the assay on HT-29, with OVCAR-4, in the assay with 786-0 and in the assay on SNB-75 was > 100 µM (inactive) throughout. Further, the GI50 with A498, in the assay with LOX IMVI, in the assay on SW-620, in the assay on HCT-116, in the assay on IGROV-1 and in the assay on U-251 was > 100 µM (inactive) in each case. Also, the GI50 in the assay on K562 and in the assay on CCRF-CEM was > 100 µM (inactive) throughout.

As to `N#CC(NNC(=O)Cc1ccccc1)c1ccccc1O` (stereo not given), the GI50 is 30.3 µM (inactive) in the assay with SK-MEL-2; 19.4 µM (inactive) in the assay with MDA-N; 27.7 µM (inactive) in the assay on MDA-MB-435; 16.4 µM (inactive) in the assay with SF-539; 26.2 µM (inactive) with SK-MEL-28; 4.25 µM with HCT-15. Besides, the GI50 with OVCAR-5 was 26.9 µM (inactive); with M14, 10.5 µM (inactive); in the assay on HT-29 it was 9.18 µM (inactive); in the assay on OVCAR-4 it was 11.8 µM (inactive); in the assay with 786-0 it was 8.75 µM (inactive); with SNB-75, 21.3 µM (inactive). Moreover, the GI50 in the assay on A498 is > 48.9 µM (inactive); in the assay on LOX IMVI, 4.98 µM (inactive); with SW-620 it was 10.2 µM (inactive); with HCT-116 it was 7.26 µM (inactive); with IGROV-1, 21.2 µM (inactive); with U-251, 6.15 µM (inactive). Also, the GI50 with K562 is 11.3 µM (inactive); in the assay with CCRF-CEM, 4 µM (inactive).

As to `NCS(=O)(=O)O`, the GI50 was > 100 µM (inactive) with SK-MEL-2; > 100 µM (inactive) in the assay on MDA-N; > 100 µM (inactive) in the assay with MDA-MB-435; 0.0361 µM (active) with SF-539; > 100 µM (inactive) in the assay with SK-MEL-28; above 100 µM in the assay with HCT-15. Besides, the GI50 in the assay on OVCAR-5 was > 100 µM (inactive); with M14 it was > 100 µM (inactive); in the assay with HT-29 it was > 100 µM (inactive); in the assay on OVCAR-4 it was 83.4 µM (inactive); in the assay with 786-0 it was > 100 µM (inactive); with SNB-75, > 100 µM (inactive). The GI50 in the assay on A498, in the assay with LOX IMVI, in the assay with SW-620, in the assay on HCT-116, in the assay on IGROV-1 and with U-251 was > 100 µM (inactive) each time. Also, the GI50 with K562 and in the assay on CCRF-CEM was > 100 µM (inactive) each time.

`CC(C)C(NC(=O)C(Cc1ccccc1)NC(=O)OC(C)(C)C)C(=O)NCC(=O)OCc1ccccc1` (stereo not drawn) (Boc-Phe-Val-Gly-OBn; configuration not given here): the GI50 in the assay with SK-MEL-2 is 17.8 µM (inactive); in the assay with MDA-N, 19.4 µM (inactive); in the assay on MDA-MB-435, 6.92 µM (inactive); in the assay on SF-539 it was 25.3 µM (inactive); with SK-MEL-28, 16.3 µM (inactive); with HCT-15 it was 12.9 µM. The GI50 in the assay with OVCAR-5 was 15.1 µM (inactive); with M14, 20.9 µM (inactive); in the assay with HT-29, 17.5 µM (inactive); in the assay with OVCAR-4 it was 3.87 µM (inactive); in the assay on 786-0, 17.9 µM (inactive); with SNB-75 it was 20.5 µM (inactive). Moreover, the GI50 in the assay on A498 was 44.6 µM (inactive); with LOX IMVI, 14.9 µM (inactive); in the assay on SW-620, 14.3 µM (inactive); in the assay on HCT-116, 23.7 µM (inactive); with IGROV-1, 14.7 µM (inactive); in the assay with U-251 it was 17.6 µM (inactive). The GI50 is 7.76 µM (inactive) in the assay with K562 and 20 µM (inactive) in the assay with CCRF-CEM.

As to `COc1cc(-c2cc(=O)c3c(OC)c(OC)c(OC)c(OC)c3o2)cc(OC)c1OC` [HEPATAMETHOXYFLAVONE], the GI50 is 27.9 µM (inactive) in the assay with SK-MEL-2; 42.7 µM (inactive) with MDA-N; 29 µM (inactive) in the assay on MDA-MB-435; > 100 µM (inactive) in the assay with SF-539; 53.2 µM (inactive) in the assay with SK-MEL-28; 33.4 µM in the assay on HCT-15. For the same compound, the GI50 in the assay with OVCAR-5 was > 100 µM (inactive); with M14, 45.7 µM (inactive); in the assay on HT-29, 35.9 µM (inactive); with OVCAR-4, 32.4 µM (inactive); with 786-0, 58.9 µM (inactive); in the assay on SNB-75, 26.4 µM (inactive). The GI50 in the assay on A498 was 21.2 µM (inactive); in the assay with LOX IMVI it was 25.9 µM (inactive); with SW-620, 55 µM (inactive); with HCT-116 it was 44.8 µM (inactive); with IGROV-1, 52.2 µM (inactive); in the assay on U-251, 40.1 µM (inactive). The GI50 was 63.4 µM (inactive) with K562 and 30.5 µM (inactive) with CCRF-CEM.

For the origin of these results see ChEMBL document CHEMBL1201862, “PubChem BioAssay data set” (2004).
